Experimental data as given in the METLIN SMRT retention time set (Domingo-Almenara et al. 2019).

Assay: gradient 5% acetonitrile 3 min, to 50% in 2 min, to 85% in 15 min, held 3 min, 100 µL/min
Conditions: column: Zorbax Extend-C18 2.1 x 50 mm; eluents: water / acetonitrile, 0.1% formic acid
Outline: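 Using water and acetonitrile that each contained 0.1% formic acid, mixtures of ~100 pure standards were separated at 100 μL/min on a Zorbax Extend-C18 column (2.1 × 50 mm, 1.8 μm). The HPLC fed a quadrupole time-of-flight mass spectrometer working in positive and negative ionization mode, with dead and dwell volumes of 40 μL and 900 μL. Data were acquired over 3 months. Retention time was read from computationally picked adduct peaks after manual inspection of each.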
`O=C(NCc1ccc(N2CCCCCC2)nc1)c1cncc(Br)c1` showed an RP-LC retention time of 603 s. Compound `COc1ccc(OC)c(N2C=C(C#N)S(=O)(=O)c3ccc(C)cc32)c1` has an RP-LC retention time of 925 s. With `O=C(O)CCc1conc1-c1cccc(F)c1` the RP-LC retention time was 729 s. With `CCOC(=O)c1c(C)[nH]c(CCC(=O)NCCN2CCCCCC2)c1C` the RP-LC retention time was 621 s. `CCC(=O)N1CCc2c(C(=O)N3CCN(c4cccc(OC)c4)CC3)cccc21` showed an RP-LC retention time of 819 s. Compound `Cc1occc1C(=O)NC1CCc2nn(C)c(=O)n2CC1` (centres undefined) has an RP-LC retention time of 604 s. For `COC(=O)c1ccc2c(=O)n(Cc3cccc(OC)c3)c(N3CCN(c4ccccn4)CC3)nc2c1`, the RP-LC retention time was 741 s. In the case of `Cc1ccc(S(=O)(=O)N2CC(=O)N(c3ccccc3F)C(C)(C(=O)NC3CCCC3)C2)cc1` (centres undefined), the RP-LC retention time is reported as 959 s. Work on `Cc1c(C(=O)NC2CC2)cnn1-c1ccc(SCc2ccccc2)nn1` yielded an RP-LC retention time of 866 s. In the case of `CN[C@H](CNC(=O)N1CCC[C@@H]([C@@H](OCCNC(=O)OC)c2cccc(Cl)c2)C1)C[C@H]1CCCOC1`, the RP-LC retention time is reported as 780 s. With `Cc1ccc(CNC(=O)Cn2ncc3c(N4CCN(c5ccccn5)CC4)ncnc32)cc1` the RP-LC retention time was 615 s. For `CCn1c(-c2cccc(C(=O)NC3CCCCC3)c2)nc2cccnc21`, the RP-LC retention time was 780 s. With `O=C(NCCCN1CCCC1=O)C1CCN(c2ncnc3c2oc2ccccc23)CC1` the RP-LC retention time was 602 s. In the case of `CCc1noc(NC(C)=O)c1-c1ccc(OC)c(S(=O)(=O)NCc2ccc(F)cc2)c1`, the RP-LC retention time is reported as 794 s. Compound `O=C(Cn1nc2n(c1=O)CCCC2)Nc1ccc2c(c1)OCCO2` has an RP-LC retention time of 635 s. For `Cc1nc(OC(C)C)cc(N2CCN(C(=O)CCc3ccccc3)CC2)n1`, the RP-LC retention time was 617 s. With `CC1CCN(C(=O)c2cc(S(=O)(=O)N3CCC(C(=O)NC4CCCCC4)CC3)cn2C)CC1` the RP-LC retention time was 839 s. `O=C(NCc1ccccc1)C1CCN(C(=O)c2ncn3c2COC(c2ccc(Cl)cc2)C3)CC1` (centres undefined) gave an RP-LC retention time of 760 s. `Cc1ccnc(N2CCCC(C(=O)NCCN3CCN(c4ccccc4F)CC3)C2)n1` (centres undefined) gave an RP-LC retention time of 614 s. For `Cc1cc(C2CCCN2C(=O)c2cc(F)c(F)cc2Cl)no1` (centres undefined), the RP-LC retention time was 832 s. `O=C(NCc1ccccc1)c1ccc2c(c1)Sc1ncccc1C(=O)N2C1CC1` showed an RP-LC retention time of 640 s. With `Cc1ccc(S(=O)(=O)N2C(=O)CCC2C(=O)Nc2cc(C)ccc2C)cc1` (centres undefined) the RP-LC retention time was 939 s. Work on `Cc1cccc(C)c1NC(=O)Cn1nc2cc(-c3ccccc3)nc(C)n2c1=O` yielded an RP-LC retention time of 832 s. In the case of `COC(=O)c1cnc2nc(C)ccc2c1Nc1cc(Cl)ccc1C`, the RP-LC retention time is reported as 716 s. For `O=C(Nc1cnc(N2CCCCC2)nc1)c1cccs1`, the RP-LC retention time was 842 s. With `COc1cccc(-c2nc(C3CC(=O)N(c4ccccc4)C3)no2)c1` (centres undefined) the RP-LC retention time was 943 s. In the case of `Cc1ccc(C(=O)Nc2ccc(N3CCN(c4ccccc4)C3=O)nc2)s1`, the RP-LC retention time is reported as 893 s. `O=C(NCCC1=CCCCC1)C1CCN(C(=O)c2ncn3c2COC(c2ccc(Cl)cc2)C3)CC1` (centres undefined) gave an RP-LC retention time of 911 s. Work on `CC1CCN(C(=O)c2cc3c(s2)CCC(C(=O)O)C3)CC1` (centres undefined) yielded an RP-LC retention time of 580 s. `COC(=O)c1c(C)[nH]c(C(=O)N2CCC(CC(=O)NC(c3cccs3)C(C)C)CC2)c1C` (centres undefined) gave an RP-LC retention time of 805 s. In the case of `CC(C)N1C(=O)C(C)(C(=O)Nc2ccc(F)cc2F)Oc2cccnc21` (centres undefined), the RP-LC retention time is reported as 989 s. Compound `COc1ccc(-c2noc(-c3cccnc3N3CCN(c4ccccc4F)CC3)n2)cc1` has an RP-LC retention time of 1370 s. Work on `O=C(O)c1cn2ccnc(-c3ccc(F)cc3)c2n1` yielded an RP-LC retention time of 688 s. Compound `CCC(CC)C(=O)N1CCN(c2ccc(=O)n(-c3ccc(Cl)cc3)n2)CC1` has an RP-LC retention time of 887 s. `CCC(C)NC(=O)Cn1c(=O)c(=O)n(CC)c2ncccc21` (centres undefined) gave an RP-LC retention time of 618 s. Compound `O=C(Cn1cnc2c(sc3nc(-c4ccccc4)ccc32)c1=O)Nc1ccc(F)c(F)c1` has an RP-LC retention time of 1040 s. For `O=C(c1ccc(Cl)c(Cl)c1)N1CCN(c2nc(-c3ccccc3)cs2)CC1`, the RP-LC retention time was 1210 s. `O=C1c2ccccc2C(=O)N1c1ncn[nH]1` gave an RP-LC retention time of 667 s. `COC(=O)c1ccccc1NC(=O)Cn1c(=O)n(-c2ccccc2)c(=O)c2c1cc(C)n2C` gave an RP-LC retention time of 911 s. `COc1cccc(-c2csc(Nc3ccc(Br)cn3)n2)c1` showed an RP-LC retention time of 1170 s. Work on `O=C(Nc1ccc2c(c1)N(C(=O)C1CCCO1)CC2)c1c(F)cccc1Cl` (centres undefined) yielded an RP-LC retention time of 731 s. In the case of `COc1ccc(-c2cc3nn(CC(=O)Nc4c(C)cccc4C)c(=O)n3c(C)n2)cc1`, the RP-LC retention time is reported as 909 s. Work on `CCc1cccc(NC(=O)c2cc3n(n2)CC(C)(C(=O)NC2CCCC2)N(CC)C3=O)c1` (centres undefined) yielded an RP-LC retention time of 605 s. Compound `C=CCNC(=O)N1CCCN(C2=NS(=O)(=O)C(c3ccc(CC)cc3)=C2C)CC1` has an RP-LC retention time of 790 s.
